Test [1] relates to Aβ production in Chinese hamster ovary cells that over-express human APP695 with the London and Swedish mutations. Kind of test: Cellular Aβ IC50 determination (Aβ40 sandwich ELISA). It is filed as cell-based. The settings on record: Cricetulus griseus; Aβ40 in CHO cells over-expressing human APP695, 24 h incubation. In a few lines: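 APP695 (London/Swedish)-overexpressing CHO cells were treated 48 h after seeding with serial dilutions from near 4 μM top concentration (0.4% DMSO) for 24 h at 37 °C. Secreted Aβ40 was quantified by sandwich ELISA relative to controls and fit to a 4-parameter IC50 model.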
(In general: An ELISA detects its analyte on a solid surface through an enzyme-linked reagent.)

The target in a further test is memapsin 2 (Homo sapiens, UniProt P56817). Kind of test: Inhibition of memapsin 2 beta-secretase activity toward fluorogenic substrate FS-2. The format is biochemical. To be noted: memapsin 2, pH 4, 37° C., 20 minutes pre-incubation, substrate FS-2; read-out: M2Ki. The essentials: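 Memapsin 2 was preincubated with compound 20 min at pH 4, 37 °C, then reacted with fluorogenic substrate FS-2 (MCA-SEVNLDAEFK-DNP), an APP-derived Swedish-variant peptide. Inhibition was followed kinetically by fluorescence.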

Bounds are passed on as bounds.

memapsin 2, sequence (P56817 46-501): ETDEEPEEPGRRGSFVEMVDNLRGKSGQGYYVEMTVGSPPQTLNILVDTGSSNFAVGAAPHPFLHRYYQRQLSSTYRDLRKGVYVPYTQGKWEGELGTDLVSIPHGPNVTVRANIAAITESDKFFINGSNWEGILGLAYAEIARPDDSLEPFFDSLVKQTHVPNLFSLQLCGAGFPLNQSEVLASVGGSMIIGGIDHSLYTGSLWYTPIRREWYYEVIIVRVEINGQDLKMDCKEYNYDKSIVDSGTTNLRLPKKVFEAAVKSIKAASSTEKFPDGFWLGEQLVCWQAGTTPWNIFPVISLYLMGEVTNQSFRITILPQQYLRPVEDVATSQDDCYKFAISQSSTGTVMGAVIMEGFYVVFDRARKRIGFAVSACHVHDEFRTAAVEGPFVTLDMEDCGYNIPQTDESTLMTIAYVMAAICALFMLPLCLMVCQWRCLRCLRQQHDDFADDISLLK

In the case of `Cc1cc(C(=O)N[C@@H](Cc2ccccc2)[C@H](O)CNCc2cccc(C(F)(F)F)c2)cc(C(=O)N2CCC[C@@H]2c2nc(C)co2)n1` [Compound 84, N-((2S,3R)-3-hydroxy-1-phenyl-4-(3-(trifluoromethyl)benzylamino)butan-2-yl)-2-methyl-6-((R)-2-(4-methyloxazol-2-yl)pyrrolidine-1-carbonyl)isonicotinamide], the IC50 in test [1] was less than 300 nM. Besides, the Ki on memapsin 2 is less than 100 nM.

Consider `Cc1cc(C(=O)N[C@@H](Cc2ccccc2)[C@H](O)CNCc2cccc(C(F)(F)F)c2)cc(C(=O)N2CCC[C@@H]2c2nc(C)cs2)n1` [Compound 79, N-((2S,3R)-3-hydroxy-1-phenyl-4-(3-(trifluoromethyl)benzylamino)butan-2-yl)-2-methyl-6-((R)-2-(4-methylthiazol-2-yl)pyrrolidine-1-carbonyl)isonicotinamide], for which the IC50 in test [1] was less than 300 nM. Moreover, the Ki at memapsin 2 was less than 100 nM.

Compound `Cc1coc([C@H]2CCCN2C(=O)c2cccc(C(=O)N[C@@H](Cc3ccccc3)[C@H](O)CNCc3cncc(C(F)(F)F)c3)c2)n1` [Compound 103, N-((2S,3R)-3-hydroxy-1-phenyl-4-((5-(trifluoromethyl)pyridin-3-yl)methylamino)butan-2-yl)-3-((R)-2-(4-methyloxazol-2-yl)pyrrolidine-1-carbonyl)benzamide] registered a half-inhibitory concentration (IC50) in test [1] of less than 300 nM. In addition, the Ki at memapsin 2 was less than 100 nM.

`COc1cccc(CNC[C@@H](O)[C@H](Cc2ccccc2)NC(=O)c2cc(OC)cc(C(=O)N3CCC[C@@H]3c3nc(C)cs3)c2)c1` [Compound 11, N-((2S,3R)-3-hydroxy-4-(3-methoxybenzylamino)-1-phenylbutan-2-yl)-3-methoxy-5-((R)-2-(4-methylthiazol-2-yl)pyrrolidine-1-carbonyl)benzamide] displayed an IC50 in test [1] of less than 300 nM. In addition, the Ki at memapsin 2 was less than 100 nM.

For `Cc1csc([C@H]2CCCN2C(=O)c2cc(C(=O)N[C@@H](Cc3ccccc3)[C@H](O)CNCc3cccc(C(F)(F)F)c3)cc(N(C)C)c2)n1` [Compound 30, 3-(dimethylamino)-N-((2S,3R)-3-hydroxy-1-phenyl-4-(3-(trifluoromethyl)benzylamino)butan-2-yl)-5-((R)-2-(4-methylthiazol-2-yl)pyrrolidine-1-carbonyl)benzamide], the concentration for half-maximal inhibition (IC50) in test [1] was less than 300 nM. Besides, the Ki on memapsin 2 was less than 100 nM.

For `Cc1csc([C@H]2CCCN2C(=O)c2cc(CF)cc(C(=O)N[C@@H](Cc3ccccc3)[C@H](O)CNCc3cncc(C(C)(C)F)c3)c2)n1` [Compound 50, 3-(fluoromethyl)-N-((2S,3R)-4-((5-(2-fluoropropan-2-yl)pyridin-3-yl)methylamino)-3-hydroxy-1-phenylbutan-2-yl)-5-((R)-2-(4-methylthiazol-2-yl)pyrrolidine-1-carbonyl)benzamide], the IC50 in test [1] was less than 300 nM. The Ki on memapsin 2 was less than 100 nM.

`Cc1csc([C@H]2CCCN2C(=O)c2cccc(C(=O)N[C@@H](Cc3ccccc3)[C@H](O)CNCc3cncc(C(C)(C)F)c3)c2)n1` [Compound 45, N-((2S,3R)-4-((5-(2-fluoropropan-2-yl)pyridin-3-yl)methylamino)-3-hydroxy-1-phenylbutan-2-yl)-3-((R)-2-(4-methylthiazol-2-yl)pyrrolidine-1-carbonyl)benzamide] came in with an IC50 in test [1] of less than 300 nM. Besides, the Ki on memapsin 2 was less than 100 nM.

Take `Cc1csc([C@H]2CCCN2C(=O)c2cc(C(=O)N[C@@H](Cc3ccccc3)[C@H](O)CNCc3cncc(C(C)C)c3)cc(N(C)C)c2)n1` [Compound 29, 3-(dimethylamino)-N-((2S,3R)-3-hydroxy-4-((5-isopropylpyridin-3-yl)methylamino)-1-phenylbutan-2-yl)-5-((R)-2-(4-methylthiazol-2-yl)pyrrolidine-1-carbonyl)benzamide]: the concentration for half-maximal inhibition (IC50) in test [1] was less than 300 nM. In addition, the Ki at memapsin 2 is less than 100 nM.

`CNc1cc(CNC[C@@H](O)[C@H](Cc2ccccc2)NC(=O)c2cccc(C(=O)N3CCC[C@@H]3c3nc(C)cs3)c2)cc(C(F)(F)F)c1` [Compound 85, N-((2S,3R)-3-hydroxy-4-(3-(methylamino)-5-(trifluoromethyl)benzylamino)-1-phenylbutan-2-yl)-3-((R)-2-(4-methylthiazol-2-yl)pyrrolidine-1-carbonyl)benzamide] had a half-maximal inhibitory concentration (IC50) in test [1] of less than 300 nM. For the same compound, on memapsin 2, the Ki is less than 100 nM.

On to `Cc1coc([C@H]2CCCN2C(=O)c2cc(CF)cc(C(=O)N[C@@H](Cc3ccccc3)[C@H](O)CNCc3cccc(C(F)(F)F)c3)c2)n1` [Compound 82, 3-(fluoromethyl)-N-((2S,3R)-3-hydroxy-1-phenyl-4-(3-(trifluoromethyl)benzylamino)butan-2-yl)-5-((R)-2-(4-methyloxazol-2-yl)pyrrolidine-1-carbonyl)benzamide], for which the IC50 in test [1] is less than 300 nM. For the same compound, the Ki at memapsin 2 was less than 100 nM.

In test [1], `Cc1coc([C@H]2CCCN2C(=O)c2cccc(C(=O)N[C@@H](Cc3ccccc3)[C@H](O)CNCc3cccc(C(C)(C)C)c3)c2)n1` [Compound 70, N-((2S,3R)-4-(3-tert-butylbenzylamino)-3-hydroxy-1-phenylbutan-2-yl)-3-((R)-2-(4-methyloxazol-2-yl)pyrrolidine-1-carbonyl)benzamide] yielded an IC50 of less than 300 nM. In addition, on memapsin 2, the Ki was less than 100 nM.

In test [1], `Cc1csc([C@H]2CCCN2C(=O)c2cc(CF)cc(C(=O)N[C@@H](Cc3ccccc3)[C@H](O)CNCc3cncc(C(F)(F)F)c3)c2)n1` [Compound 51, 3-(fluoromethyl)-N-((2S,3R)-3-hydroxy-1-phenyl-4-((5-(trifluoromethyl)pyridin-3-yl)methylamino)butan-2-yl)-5-((R)-2-(4-methylthiazol-2-yl)pyrrolidine-1-carbonyl)benzamide] registered an IC50 of less than 300 nM. In addition, the Ki on memapsin 2 was less than 100 nM.

Compound `Cc1csc([C@H]2CCCN2C(=O)c2cccc(C(=O)N[C@@H](Cc3ccccc3)[C@H](O)CNCc3cccc(N(C)C)c3)c2)n1` [Compound 69, N-((2S,3R)-4-(3-(dimethylamino)benzylamino)-3-hydroxy-1-phenylbutan-2-yl)-3-((R)-2-(4-methylthiazol-2-yl)pyrrolidine-1-carbonyl)benzamide] had a half-maximal inhibitory concentration (IC50) in test [1] of less than 300 nM. For the same compound, the Ki at memapsin 2 is less than 100 nM.

Compound `COc1cccc(CNC[C@@H](O)[C@H](Cc2ccccc2)NC(=O)c2cccc(C(=O)N3CCCC3)c2)c1` [Compound 21, N-((2S,3R)-3-hydroxy-4-(3-methoxybenzylamino)-1-phenylbutan-2-yl)-3-(pyrrolidine-1-carbonyl)benzamide] had a half-inhibitory concentration (IC50) in test [1] greater than 501 nM. Moreover, the Ki on memapsin 2 is greater than 201 nM.

Consider `COc1cc(C(=O)N[C@@H](Cc2ccccc2)[C@H](O)CN[C@@H](C)c2cccc(OC)c2)cc(C(=O)N2CCC[C@@H]2c2nc(C)cs2)c1` [Compound 20, N-((2S,3R)-3-hydroxy-4-((S)-1-(3-methoxyphenyl)ethylamino)-1-phenylbutan-2-yl)-3-methoxy-5-((R)-2-(4-methylthiazol-2-yl)pyrrolidine-1-carbonyl)benzamide], for which, in test [1], the IC50 was less than 300 nM. The Ki at memapsin 2 was less than 100 nM.

For the compound `Cc1csc([C@H]2CCCN2C(=O)c2cncc(C(=O)N[C@@H](Cc3ccccc3)[C@H](O)CNCc3cc(Cl)cc(Cl)c3)c2)n1` [Compound 60, N-((2S,3R)-4-(3,5-dichlorobenzylamino)-3-hydroxy-1-phenylbutan-2-yl)-5-((R)-2-(4-methylthiazol-2-yl)pyrrolidine-1-carbonyl)nicotinamide], the IC50 in test [1] is less than 300 nM. In addition, at memapsin 2, the Ki is less than 100 nM.

Take `Cc1coc([C@H]2CCCN2C(=O)c2cc(CF)cc(C(=O)N[C@@H](Cc3ccccc3)[C@H](O)CNCc3cncc(C(C)C)c3)c2)n1` [Compound 77, 3-(fluoromethyl)-N-((2S,3R)-3-hydroxy-4-((5-isopropylpyridin-3-yl)methylamino)-1-phenylbutan-2-yl)-5-((R)-2-(4-methyloxazol-2-yl)pyrrolidine-1-carbonyl)benzamide]: the IC50 in test [1] is less than 300 nM. Also, the Ki on memapsin 2 was less than 100 nM.

`Cc1coc([C@H]2CCCN2C(=O)c2cc(C(=O)N[C@@H](Cc3ccccc3)[C@H](O)CNCc3cncc(C(C)C)c3)cc(N(C)C)c2)n1` [Compound 92, 3-(dimethylamino)-N-((2S,3R)-3-hydroxy-4-((5-isopropylpyridin-3-yl)methylamino)-1-phenylbutan-2-yl)-5-((R)-2-(4-methyloxazol-2-yl)pyrrolidine-1-carbonyl)benzamide] registered a 50% inhibitory concentration (IC50) in test [1] of less than 300 nM. Further, at memapsin 2, the Ki is less than 100 nM.

Turning to `Cc1coc([C@H]2CCCN2C(=O)c2cc(C(=O)N[C@@H](Cc3ccccc3)[C@H](O)CNCc3cccc(C(F)(F)F)c3)ccn2)n1` [Compound 94, N-((2S,3R)-3-hydroxy-1-phenyl-4-(3-(trifluoromethyl)benzylamino)butan-2-yl)-2-((R)-2-(4-methyloxazol-2-yl)pyrrolidine-1-carbonyl)isonicotinamide], in test [1], the IC50 was less than 300 nM. Further, at memapsin 2, the Ki was less than 100 nM.

Turning to `Cc1coc([C@H]2CCCN2C(=O)c2cccc(C(=O)N[C@@H](Cc3ccccc3)[C@H](O)CNCc3cncc(C(C)(F)F)c3)c2)n1` [Compound 102, N-((2S,3R)-4-((5-(1,1-difluoroethyl)pyridin-3-yl)methylamino)-3-hydroxy-1-phenylbutan-2-yl)-3-((R)-2-(4-methyloxazol-2-yl)pyrrolidine-1-carbonyl)benzamide], the concentration for half-maximal inhibition (IC50) in test [1] was less than 300 nM. Further, on memapsin 2, the Ki is less than 100 nM.

As to `COC[C@H]1CCCN1C(=O)c1cc(C)cc(C(=O)N[C@@H](Cc2ccccc2)[C@H](O)CNCc2cccc(OC)c2)c1` [Compound 3, N-((2S,3R)-3-hydroxy-4-(3-methoxybenzylamino)-1-phenylbutan-2-yl)-3-((R)-2-(methoxymethyl)pyrrolidine-1-carbonyl)-5-methylbenzamide], in test [1], the half-inhibitory concentration (IC50) was less than 300 nM. Moreover, the Ki at memapsin 2 was less than 100 nM.

For orientation: IC50 means the concentration that gives 50% inhibition.

The values above are taken from patent publication US8299267B2, “(3-hydroxy-4-amino-butan-2-yl) -3- (2-thiazol-2-yl-pyrrolidine-1-carbonyl) benzamide derivatives and related compounds as beta-secretase inhibitors for treating” (CoMentis, Inc., priority 2007, dated 2012).
